Each structure is given as a SMILES string. “Also recorded” adds a separate entry of the source.

This is an account of results in publication PMC6385087, “New Multitarget Hybrids Bearing Tacrine and Phenylbenzothiazole Motifs as Potential Drug Candidates for Alzheimer’s Disease” (Molecules, 2019).

For series [1], the target named is T1, AChE from electric eel (Electrophorus electricus, UniProt O42275).
T1 construct: commercially available enzyme AChE 500 U (extracted from electrophorus electricus); purchased type VI-S; host or cells: extracted from electric eel
T1 sequence (O42275 24-633): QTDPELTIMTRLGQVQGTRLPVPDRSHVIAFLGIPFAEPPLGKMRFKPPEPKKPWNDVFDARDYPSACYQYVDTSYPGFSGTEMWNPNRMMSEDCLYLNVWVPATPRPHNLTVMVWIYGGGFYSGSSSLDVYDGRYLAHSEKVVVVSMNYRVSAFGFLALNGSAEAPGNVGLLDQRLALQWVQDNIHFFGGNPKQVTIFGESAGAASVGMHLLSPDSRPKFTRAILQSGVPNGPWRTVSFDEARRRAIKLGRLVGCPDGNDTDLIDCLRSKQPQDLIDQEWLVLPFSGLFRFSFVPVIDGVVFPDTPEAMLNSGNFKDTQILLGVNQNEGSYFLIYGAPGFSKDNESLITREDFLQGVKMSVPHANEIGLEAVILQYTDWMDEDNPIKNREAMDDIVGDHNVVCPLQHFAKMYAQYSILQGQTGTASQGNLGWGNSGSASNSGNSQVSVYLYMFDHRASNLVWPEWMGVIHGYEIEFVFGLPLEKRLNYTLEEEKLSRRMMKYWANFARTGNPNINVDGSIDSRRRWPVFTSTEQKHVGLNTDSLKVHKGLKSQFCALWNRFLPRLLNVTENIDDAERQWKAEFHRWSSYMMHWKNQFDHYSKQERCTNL
The series is described as follows: biochemical. The conditions noted are these: means of two experiments, read-out: Inhibition of AChE (IC50). The procedure: The analytical grade reagents were purchased from Sigma-Aldrich (St. Louis, MO, USA) and Acros (Thermo Fisher Scientific, Geel, Belgium) and were used without any further purification. The organic solvents were dried and distilled according to standard methods described in literature. […] The Proton and Carbon-13 NMR were recorded either on Bruker AVANCE III-300 (300 MHz and 75.5 MHz) or Bruker AVANCE III-400 (400 MHz and 100.5 MHz) NMR spectrometers (Billerica, MA, USA) at 25 °C using peaks of solvents as internal standard. The chemical shift values of protons or carbons were measured on a δ scale and the coupling constant values (J) were determined in Hertz. In the NMR representation, abbreviations are mentioned as: singlet represented by s, doublet represented by d, triplet represented by t, multiplet represented by m, double doublet represented by dd, and broad singlet represented by brs. The Leica Galen III hot stage apparatus (Leica Microsystems, Wetzlar, Germany) was used for measuring the melting points of compounds. […] The AChE inhibitory activity was measured in a 1 cm path length quartz cell through a Perkin Elmer Lambda 35 spectrophotometer equipped with a temperature programmer PTP1+1 Peltier System (T = 25.0 ± 0.1 °C) (Waltham, MA, USA). Electrospray ionization-mass (ESI-MS) measurements were carried out on a LCQ Fleet mass spectrometer (Thermo Scientific, S. Jose, CA, USA) operated in the ESI positive and negative ion modes.
Modified Ellman’s method was used as described previously for the determination of AChE activity. The AChE stock solution was prepared by dissolving commercially available enzyme AChE 500 U (extracted from electrophorus electricus) in 10 mL of TRIS buffer (50 mM, pH 8). HEPES buffer was used for the dilution of the enzyme to give the final AChE concentration. The assay solution consisted of 374 μL of 4-(2-hydroxyethyl)-1-piperazineethanesulfonic acid (Hepes) buffer (50 mM, pH 8.0), 476 μL of 3 mM bis(3-carboxy-4-nitrophenyl)disulfide (DTNB), 25 μL of AChE (type VI-S, from electric eel) stock solution, a variable volume (10–50 μL) of the compound’s stock solution (1 mg/mL of MeOH), and the necessary amount of methanol to attain the same volume of sample mixture (0.925 mL) in a 1 mL cuvette. Samples were left to react for 15 min and then the reaction was monitored at wavelength of 405 nm for 5 min, after adding 75 μL of 16 mM acetylthiocholine iodide (AChI) solution. Assays were run with a blank containing all the components except AChE, which was replaced by HEPES buffer. The velocities of the reaction were calculated as well as the enzyme activity. A control reaction was carried out using the sample solvent (methanol) in the absence of any tested compound, and it was considered as 100% activity. […] The inhibition curves were obtained by plotting the percentage of enzymatic inhibition versus inhibitor concentration and a calibration curve was obtained from which the linear regression parameters were calculated.

Series [2] deals with SH-SY5Y cells. Put plainly: Neuroprotection against Aβ1–42 induced toxicity, MTT reduction. In kind it is cell-based, human. The conditions noted are these: Aβ1-42 1 μM, 24 h after 1 h pre-treatment, compounds: 16 2.5 µM, 17 0.5 µM, 14 and 15 0.2 µM, 19 and 18 1 µM. The procedure: The neuroprotective effect of TAC-PhBTA conjugates was evaluated using SH-SY5Y cells treated with Aβ1–42 peptides or ascorbate/iron. For each compound, a dose-response curve was performed to select a non-toxic concentration in order to analyze its neuroprotective effect (Figure 3).
SH-SY5Y human neuroblastoma cell line (ATCC-CRL-2266) grown in Dulbecco’s modified Eagle’s medium (DMEM) obtained from Gibco-Invitrogen (Life Technologies Ltd., Liverpool, UK) with 10% heat inactivated fetal calf serum, containing 50 U/mL penicillin, and 50 μg/mL streptomycin, under a humidified atmosphere of 95% air-5% CO2 at 37 °C. Cells were plated at 0.12 × 10^6 cells/mL for cell viability assay. The tested compounds (16, 17, 14, 15, 19 and 18) were dissolved in DMSO at a concentration of 25 mM and aliquots were stored at −20 °C. We performed a dose-response screening (from 0.2 μM to 5 μM) in order to choose the highest non-toxic concentration. As a result we selected a 2.5 μM final concentration for compound 16; 0.5 μM final concentration for compound 17; 0.2 μM final concentration for compounds 14 and 15; and a 1 μM final concentration for compounds 19 and 18. […] The compounds were added to the cell media 1 h before the incubation with Aβ1–42 or ferrous sulfate/L-ascorbic acid. Aβ1–42 or ferrous sulfate/L-ascorbic acid where incubated alone or with the compound for an additional 24 h. Aβ1–42 was prepared as 276.9 μM stock in sterile water and added to the medium at 1 μM final concentration. Ferrous sulfate was freshly prepared as 0.36 M stock in water and added to the medium at 500 μM final concentration. L-Ascorbic Acid was freshly prepared as 80 mM stock in water and added to the medium at 5 mM final concentration. […]
Cell viability was determined by a MTT (3-(4,5-dimethylthiazol-2-yl)-2,5-diphenyltetrazolium bromide) reduction test. […] The absorbance was measured at 570 nm. Cell reduction ability was expressed as a percentage of untreated control cells.
All data were expressed as mean ± S.E.M. of at least three independent experiments performed in duplicates. […]

A short description of series [3]: Solubility in methanol. In kind it is physicochemical.

As to `COc1cc(-c2nc3ccccc3s2)ccc1OCC(=O)NCC(O)CNc1c2c(nc3cc(Cl)ccc13)CCCC2` (stereo not shown) [compound 19, 2-(4-(Benzo[d]thiazol-2-yl)-2-methoxyphenoxy)-N-(3-((6-chloro-1,2,3,4-tetrahydroacridin-9-yl)amino)-2-hydroxypropyl)acetamide], the IC50 in series [1] turned out to be 140 nM. In addition, in series [2], the “Prevention of Aβ-induced cell toxicity (cell viability, MTT)” value (shortened to “Prevention of Aβ-induced cell toxicity”) is on record as “capacity to prevent Aβ-induced toxicity; also recorded: prevented Aβ-induced cell toxicity”.
In the case of `COc1cc(-c2nc3ccccc3s2)ccc1OCC(=O)NCCNc1c2c(nc3cc(Cl)ccc13)CCCC2` [compound 15, 2-(4-(Benzo[d]thiazol-2-yl)-2-methoxyphenoxy)-N-(2-((6-chloro-1,2,3,4 tetrahydroacridin-9-yl)amino)ethyl)acetamide], the IC50 in series [1] turned out to be 60 nM. The “Prevention of Aβ-induced cell toxicity” value in series [2] is recorded as “capacity to prevent Aβ-induced toxicity; also recorded: prevented Aβ-induced cell toxicity”.
As to `COc1cc(-c2nc3ccccc3s2)ccc1OCC(=O)NCCCNc1c2c(nc3ccccc13)CCCC2` [compound 16, 2-(4-(Benzo[d]thiazol-2-yl)-2-methoxyphenoxy)-N-(3-((1,2,3,4-tetrahydroacridin-9-yl)amino)propyl)acetamide], the IC50 in series [1] stood at 150 nM. Also, the “Prevention of Aβ-induced cell toxicity” value in series [2] is recorded as “capacity to prevent Aβ-induced toxicity; also recorded: prevented Aβ-induced cell toxicity”. The Solubility in methanol entry in series [3] is on record as “soluble in methanol”.
